From the NIST ThermoML archive (doi:10.1021/acs.jced.7b00646)

Experiment: xn = mol fraction of the nth substance listed
Details: 318.15 K, 101.3 kPa, Liquid, Alternating current cell with electrodes

O=C1CCCO1 [γ-butyrolactone] + CCCC[n+]1ccn(C)c1.O=S(=O)([N-]S(=O)(=O)C(F)(F)F)C(F)(F)F
Details | electrical conductivity [S/m]
x2 = 0.05 | 1.43
x2 = 0.1 | 1.95
x2 = 0.2001 | 2.13
x2 = 0.2999 | 1.96
x2 = 0.4 | 1.72
x2 = 0.5002 | 1.506
x2 = 0.5998 | 1.307
x2 = 0.7 | 1.16
x2 = 0.8 | 1.03
x2 = 0.8999 | 0.937

O=C1OCCO1 [ethylene carbonate] + CCCC[n+]1ccn(C)c1.O=S(=O)([N-]S(=O)(=O)C(F)(F)F)C(F)(F)F
Details | electrical conductivity [S/m]
x2 = 0.05 | 1.36
x2 = 0.1 | 1.87
x2 = 0.2001 | 2.06
x2 = 0.2999 | 1.908
x2 = 0.4 | 1.7
x2 = 0.5002 | 1.504
x2 = 0.5998 | 1.313
x2 = 0.7 | 1.17
x2 = 0.8 | 1.07
x2 = 0.8999 | 0.965

CC1COC(=O)O1 (centres undefined) [4-methyl-1,3-dioxolan-2-one] + CCCC[n+]1ccn(C)c1.O=S(=O)([N-]S(=O)(=O)C(F)(F)F)C(F)(F)F
Details | electrical conductivity [S/m]
x2 = 0.05 | 1.08
x2 = 0.1 | 1.51
x2 = 0.2001 | 1.75
x2 = 0.2999 | 1.68
x2 = 0.4 | 1.53
x2 = 0.5002 | 1.36
x2 = 0.5998 | 1.224
x2 = 0.7 | 1.114
x2 = 0.8 | 1.009
x2 = 0.8999 | 0.924

CCCC[n+]1ccn(C)c1.O=S(=O)([N-]S(=O)(=O)C(F)(F)F)C(F)(F)F + COC(=O)OC
Details | electrical conductivity [S/m]
x1 = 0.05 | 0.587
x1 = 0.1 | 1.36
x1 = 0.2001 | 2.12
x1 = 0.2999 | 2.14
x1 = 0.4 | 1.93
x1 = 0.5002 | 1.68
x1 = 0.5998 | 1.42
x1 = 0.7 | 1.23
x1 = 0.8 | 1.08
x1 = 0.8999 | 0.965
x1 = 1 | 0.877

CCCC[n+]1ccn(C)c1.O=S(=O)([N-]S(=O)(=O)C(F)(F)F)C(F)(F)F + O=C1CCCO1
Details | electrical conductivity [S/m]
x1 = 1 | 0.877

CCCC[n+]1ccn(C)c1.O=S(=O)([N-]S(=O)(=O)C(F)(F)F)C(F)(F)F + O=C1OCCO1
Details | electrical conductivity [S/m]
x1 = 1 | 0.877

CCCC[n+]1ccn(C)c1.O=S(=O)([N-]S(=O)(=O)C(F)(F)F)C(F)(F)F + CC1COC(=O)O1
Details | electrical conductivity [S/m]
x1 = 1 | 0.877
